Source: ChEMBL document CHEMBL1201862, “PubChem BioAssay data set” (2004)
Active and inactive are the calls of the source. Cut-off read from the data, not from the text of the source: actives have a measured IC50 and inactives only a lower limit.

Molecular target: Envelope glycoprotein gp160 (Human immunodeficiency virus 1, UniProt Q6QLK5)
Experiment: inhibitors of HIV fusion peptide binding, primary screen, biochemical, uHTS, fluorescence dequenching (AID 1986)

Chain of Envelope glycoprotein gp160 (Q6QLK5 whole entry, the tested form may be a part): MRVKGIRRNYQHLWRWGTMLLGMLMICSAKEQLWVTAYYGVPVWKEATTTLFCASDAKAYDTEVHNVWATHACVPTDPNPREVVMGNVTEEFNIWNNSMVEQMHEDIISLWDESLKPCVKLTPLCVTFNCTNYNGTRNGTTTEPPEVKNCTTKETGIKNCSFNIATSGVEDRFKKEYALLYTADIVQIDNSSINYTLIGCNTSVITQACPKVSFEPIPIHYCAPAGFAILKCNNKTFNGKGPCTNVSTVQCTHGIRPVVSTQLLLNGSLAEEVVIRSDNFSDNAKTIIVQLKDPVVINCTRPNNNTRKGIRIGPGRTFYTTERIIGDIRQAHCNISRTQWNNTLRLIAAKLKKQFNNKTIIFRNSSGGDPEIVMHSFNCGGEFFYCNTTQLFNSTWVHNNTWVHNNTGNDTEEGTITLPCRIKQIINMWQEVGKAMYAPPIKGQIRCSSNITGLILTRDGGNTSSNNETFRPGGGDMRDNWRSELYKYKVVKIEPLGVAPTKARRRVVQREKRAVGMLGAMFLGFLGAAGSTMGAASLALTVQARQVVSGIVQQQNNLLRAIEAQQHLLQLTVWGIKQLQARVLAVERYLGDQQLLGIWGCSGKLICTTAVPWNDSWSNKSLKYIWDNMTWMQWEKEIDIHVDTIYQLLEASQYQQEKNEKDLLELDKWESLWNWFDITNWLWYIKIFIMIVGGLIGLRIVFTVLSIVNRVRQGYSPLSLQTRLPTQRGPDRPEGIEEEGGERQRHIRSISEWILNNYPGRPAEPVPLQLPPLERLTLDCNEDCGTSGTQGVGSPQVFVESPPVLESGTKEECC

Row | Structure (SMILES) | IC50
1 | O=C(O)c1ccccc1-c1ccccc1C(=O)Nc1ccc(-c2nc3cc(Cl)ccc3o2)cc1 | 24.4 µM (active)
2 | COc1cc(/C=C2\C(=N)N3N=C(S(C)(=O)=O)SC3=NC2=O)ccc1OC(=O)c1cccs1 | 12.1 µM (active)
